Data: ChEMBL document CHEMBL1132267, “Synthesis and antibacterial properties of beta-diketone acrylate bioisosteres of pseudomonic acid A” (Bioorg Med Chem Lett, 1999)
Values after ≈ are worked out from the molar mass of the structure shown.

Tests used:
[1] = tested on: Moraxella catarrhalis; test: In vitro antibacterial activity against Moraxella catarrhalis 1502; format: functional
[2] = tested on: Staphylococcus aureus; test: In vitro antibacterial activity against Staphylococcus aureus Oxford; format: functional
[3] = tested on: Haemophilus influenzae; test: In vitro antibacterial activity against Haemophilus influenzae Q1; format: functional
[4] = tested on: Streptococcus pyogenes; test: In vitro antibacterial activity against Streptococcus pyogenes CN10; format: functional
[5] = tested on: Streptococcus pneumoniae; test: In vitro antibacterial activity against Streptococcus pneumoniae PU7; format: functional
[6] = tested on: Homo sapiens; test: The compound was tested for its percentage serum binding affinity in human […]; format: organism-based
[7] = biological target: T1, Isoleucine--tRNA ligase (Staphylococcus aureus) (UniProt P41972); test: In vitro antibacterial activity against isoleucyl-tRNA synthetase from Staphylococcus aureus Oxford; format: functional
T1 sequence (whole entry): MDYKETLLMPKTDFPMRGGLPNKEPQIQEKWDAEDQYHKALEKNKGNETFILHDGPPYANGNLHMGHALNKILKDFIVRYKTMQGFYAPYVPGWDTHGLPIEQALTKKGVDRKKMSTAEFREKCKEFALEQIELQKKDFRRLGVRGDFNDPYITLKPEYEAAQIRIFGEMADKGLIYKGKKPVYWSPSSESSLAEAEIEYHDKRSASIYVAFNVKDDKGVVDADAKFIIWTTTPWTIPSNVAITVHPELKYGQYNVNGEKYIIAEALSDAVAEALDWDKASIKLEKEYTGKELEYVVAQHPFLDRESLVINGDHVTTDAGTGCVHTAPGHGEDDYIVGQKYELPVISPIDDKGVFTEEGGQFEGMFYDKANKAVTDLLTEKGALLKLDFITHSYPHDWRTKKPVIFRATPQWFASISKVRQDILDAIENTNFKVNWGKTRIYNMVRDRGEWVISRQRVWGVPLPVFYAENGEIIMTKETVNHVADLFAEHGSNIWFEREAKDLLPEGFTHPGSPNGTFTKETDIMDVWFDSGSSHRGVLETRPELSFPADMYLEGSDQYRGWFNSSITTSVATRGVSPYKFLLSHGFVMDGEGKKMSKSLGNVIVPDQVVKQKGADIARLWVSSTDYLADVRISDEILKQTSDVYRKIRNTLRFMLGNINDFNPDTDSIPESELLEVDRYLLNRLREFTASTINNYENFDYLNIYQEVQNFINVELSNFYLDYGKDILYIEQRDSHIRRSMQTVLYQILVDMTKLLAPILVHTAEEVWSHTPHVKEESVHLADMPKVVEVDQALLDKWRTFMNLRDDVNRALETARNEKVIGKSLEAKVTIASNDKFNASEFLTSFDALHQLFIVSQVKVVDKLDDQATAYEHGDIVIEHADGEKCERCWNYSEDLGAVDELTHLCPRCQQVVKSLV

[8] = tested on: Mus musculus; test: The area under curve in vivo in mouse blood level after oral administration at dose 50 mk/kg e-1; format: ADME, organism-based
[9] = tested on: Isoleucine--tRNA ligase (Moraxella catarrhalis); test: In vitro antibacterial activity against isoleucyl-tRNA synthetase from Moraxella catarrhalis 1502
[10] = tested on: Mus musculus; test: The area under curve in vivo in mouse blood level after subcutaneous administration at dose 50 mk/kg e-1; format: ADME, organism-based; conditions: sc
[11] = tested on: Mus musculus; test: Concentration required to protect 50% of the mice from death after s.c. administration of compound tested in vivo; format: functional
[12] = tested on: Mus musculus; test: Concentration required to protect 50% of the mice from death after oral administration of compound tested in vivo; format: functional
[13] = tested on: Isoleucine--tRNA ligase (Streptococcus pyogenes); test: In vitro antibacterial activity against isoleucyl-tRNA synthetase from Streptococcus pyogenes CN10
[14] = tested on: Isoleucine--tRNA ligase (Streptococcus pneumoniae); test: In vitro antibacterial activity against isoleucyl-tRNA synthetase from Streptococcus pneumoniae PU7
[15] = tested on: Isoleucine--tRNA ligase (Haemophilus influenzae); test: In vitro antibacterial activity against isoleucyl-tRNA synthetase from Haemophilus influenzae Q1
[16] = tested on: Mus musculus; test: The compound was tested for its percentage serum binding affinity in mouse […]; format: functional

Compound | MIC [1] | MIC [2] | MIC [3] | MIC [4] | MIC [5] | Bound [6] | MIC [7] | AUC [8] | MIC [9] | AUC [10] | CD50 [11] | CD50 [12] | MIC [13] | MIC [14] | MIC [15] | Bound [16]
C[C@H]([C@@H]1O[C@H]1C[C@H]1CO[C@@H](CC(=O)CC(=O)c2ccc(C#N)cc2)[C@H](O)[C@@H]1O)[C@H](C)O | 0.5 µg/mL (≈ 1.16 µM) | 2 µg/mL (≈ 4.64 µM) | 0.06 µg/mL (≈ 0.139 µM) | 0.13 µg/mL (≈ 0.301 µM) | 0.25 µg/mL (≈ 0.579 µM) |  |  |  |  |  |  |  |  |  |  | 
C[C@H]([C@@H]1O[C@H]1C[C@H]1CO[C@@H](CC(=O)CC(=O)c2cnc(N(C)C)nc2)[C@H](O)[C@@H]1O)[C@H](C)O | 2 µg/mL (≈ 4.43 µM) | 2 µg/mL (≈ 4.43 µM) | 0.25 µg/mL (≈ 0.554 µM) | 1 µg/mL (≈ 2.21 µM) | 1 µg/mL (≈ 2.21 µM) |  |  |  |  |  |  |  |  |  |  | 
C[C@H]([C@@H]1O[C@H]1C[C@H]1CO[C@@H](CC(=O)CC(=O)c2ccoc2)[C@H](O)[C@@H]1O)[C@H](C)O | 2 µg/mL (≈ 5.04 µM) | 1 µg/mL (≈ 2.52 µM) | 0.13 µg/mL (≈ 0.328 µM) | 1 µg/mL (≈ 2.52 µM) | 2 µg/mL (≈ 5.04 µM) |  |  |  |  |  |  |  |  |  |  | 
C[C@H]([C@@H]1O[C@H]1C[C@H]1CO[C@@H](CC(=O)CC(=O)c2ccc(F)cc2)[C@H](O)[C@@H]1O)[C@H](C)O |  |  |  |  |  | 80% | 0.5 µg/mL (≈ 1.18 µM) | 4930 ng·h/mL | 0.5 µg/mL (≈ 1.18 µM) | 6800 ng·h/mL | 12 mg/kg | 19 mg/kg | 0.25 µg/mL (≈ 0.589 µM) | 0.13 µg/mL (≈ 0.306 µM) | 0.06 µg/mL (≈ 0.141 µM) | 
C[C@H]([C@@H]1O[C@H]1C[C@H]1CO[C@@H](CC(=O)CC(=O)c2ccc(N(C)C)cc2)[C@H](O)[C@@H]1O)[C@H](C)O | 0.5 µg/mL (≈ 1.11 µM) | 2 µg/mL (≈ 4.45 µM) | 0.06 µg/mL (≈ 0.133 µM) | 1 µg/mL (≈ 2.22 µM) | 0.5 µg/mL (≈ 1.11 µM) |  |  |  |  |  |  |  |  |  |  | 
COc1ccc(C(=O)CC(=O)C[C@@H]2OC[C@H](C[C@@H]3O[C@H]3[C@@H](C)[C@H](C)O)[C@@H](O)[C@H]2O)cc1 |  |  |  |  |  | 75% | 0.5 µg/mL (≈ 1.15 µM) | 5920 ng·h/mL | 0.25 µg/mL (≈ 0.573 µM) | 14900 ng·h/mL | 3.8 mg/kg | 28 mg/kg | 0.25 µg/mL (≈ 0.573 µM) | 0.25 µg/mL (≈ 0.573 µM) | 0.06 µg/mL (≈ 0.137 µM) | 51%
C[C@H]([C@@H]1O[C@H]1C[C@H]1CO[C@@H](CC(=O)CC(=O)c2cnn(C)c2)[C@H](O)[C@@H]1O)[C@H](C)O | 0.5 µg/mL (≈ 1.22 µM) | 4 µg/mL (≈ 9.74 µM) | 0.13 µg/mL (≈ 0.317 µM) | 1 µg/mL (≈ 2.44 µM) | 1 µg/mL (≈ 2.44 µM) |  |  |  |  |  |  |  |  |  |  | 
COc1ccc(C(=O)CC(=O)C[C@@H]2OC[C@H](C[C@@H]3O[C@H]3[C@@H](C)[C@H](C)O)[C@@H](O)[C@H]2O)cn1 | 0.25 µg/mL (≈ 0.571 µM) | 1 µg/mL (≈ 2.29 µM) | 0.13 µg/mL (≈ 0.297 µM) | 0.13 µg/mL (≈ 0.297 µM) | 0.13 µg/mL (≈ 0.297 µM) |  |  |  |  |  |  |  |  |  |  | 
COc1ccc(C(=O)/C=C/C[C@@H]2OC[C@H](C[C@@H]3O[C@H]3[C@@H](C)[C@H](C)O)[C@@H](O)[C@H]2O)cc1 | 2 µg/mL (≈ 4.76 µM) | 1 µg/mL (≈ 2.38 µM) | 0.13 µg/mL (≈ 0.309 µM) | 0.5 µg/mL (≈ 1.19 µM) | 0.25 µg/mL (≈ 0.595 µM) |  |  |  |  |  |  |  |  |  |  | 
C/C(=C\C(=O)OCCCCCCCCC(=O)O)C[C@@H]1OC[C@H](C[C@@H]2O[C@H]2[C@@H](C)[C@H](C)O)[C@@H](O)[C@H]1O [MUPIROCIN] | 0.13 µg/mL (≈ 0.26 µM) | 0.13 µg/mL (≈ 0.26 µM) | 0.06 µg/mL (≈ 0.12 µM) | 0.13 µg/mL (≈ 0.26 µM) | 0.13 µg/mL (≈ 0.26 µM) |  |  |  |  |  |  |  |  |  |  | 
C[C@H]([C@@H]1O[C@H]1C[C@H]1CO[C@@H](CC(=O)CC(=O)c2ccccc2)[C@H](O)[C@@H]1O)[C@H](C)O | 1 µg/mL (≈ 2.46 µM) | 1 µg/mL (≈ 2.46 µM) | 0.25 µg/mL (≈ 0.615 µM) | 0.5 µg/mL (≈ 1.23 µM) | 0.5 µg/mL (≈ 1.23 µM) |  |  |  |  |  |  |  |  |  |  | 
CCOC(OCC)c1ccc(C(=O)CC(=O)C[C@@H]2OC[C@H](C[C@@H]3O[C@H]3[C@@H](C)[C@H](C)O)[C@@H](O)[C@H]2O)cc1 | 0.5 µg/mL (≈ 0.983 µM) | 1 µg/mL (≈ 1.97 µM) | 1 µg/mL (≈ 1.97 µM) | 0.5 µg/mL (≈ 0.983 µM) | 1 µg/mL (≈ 1.97 µM) |  |  |  |  |  |  |  |  |  |  | 
C[C@H]([C@@H]1O[C@H]1C[C@H]1CO[C@@H](CC(=O)CC(=O)c2ccc(N(C)C)nc2)[C@H](O)[C@@H]1O)[C@H](C)O |  |  |  |  |  | 84% | 1 µg/mL (≈ 2.22 µM) | 7180 ng·h/mL | 1 µg/mL (≈ 2.22 µM) | 13300 ng·h/mL | 12 mg/kg | 23 mg/kg | 1 µg/mL (≈ 2.22 µM) | 0.5 µg/mL (≈ 1.11 µM) | 0.06 µg/mL (≈ 0.133 µM) | 66%
C[C@H]([C@@H]1O[C@H]1C[C@H]1CO[C@@H](CC(=O)CC(=O)C2=CCCCC2)[C@H](O)[C@@H]1O)[C@H](C)O | 2 µg/mL (≈ 4.87 µM) | 2 µg/mL (≈ 4.87 µM) | 0.13 µg/mL (≈ 0.317 µM) | 0.5 µg/mL (≈ 1.22 µM) | 0.5 µg/mL (≈ 1.22 µM) |  |  |  |  |  |  |  |  |  |  | 
C[C@H]([C@@H]1O[C@H]1C[C@H]1CO[C@@H](CC(=O)CC(=O)c2ccsc2)[C@H](O)[C@@H]1O)[C@H](C)O | 1 µg/mL (≈ 2.42 µM) | 1 µg/mL (≈ 2.42 µM) | 0.13 µg/mL (≈ 0.315 µM) | 1 µg/mL (≈ 2.42 µM) | 0.5 µg/mL (≈ 1.21 µM) |  |  |  |  |  |  |  |  |  |  | 
CCCCC(=O)CC(=O)C[C@@H]1OC[C@H](C[C@@H]2O[C@H]2[C@@H](C)[C@H](C)O)[C@@H](O)[C@H]1O | 2 µg/mL (≈ 5.17 µM) | 8 µg/mL (≈ 20.7 µM) | 0.5 µg/mL (≈ 1.29 µM) | 2 µg/mL (≈ 5.17 µM) | 8 µg/mL (≈ 20.7 µM) |  |  |  |  |  |  |  |  |  |  | 
COc1ccc(/C=C/C(=O)C[C@@H]2OC[C@H](C[C@@H]3O[C@H]3[C@@H](C)[C@H](C)O)[C@@H](O)[C@H]2O)cc1 | 16 µg/mL (≈ 38 µM) | 128 µg/mL (≈ 304 µM) | 1 µg/mL (≈ 2.38 µM) | 8 µg/mL (≈ 19 µM) | 8 µg/mL (≈ 19 µM) |  |  |  |  |  |  |  |  |  |  | 
COc1ccc(C(=O)/C=C(\C)C[C@@H]2OC[C@H](C[C@@H]3O[C@H]3[C@@H](C)[C@H](C)O)[C@@H](O)[C@H]2O)cc1 |  |  |  |  |  | 96% | 0.5 µg/mL (≈ 1.15 µM) | 1770 ng·h/mL | 0.25 µg/mL (≈ 0.575 µM) | 5600 ng·h/mL | 12 mg/kg | 18 mg/kg | 0.25 µg/mL (≈ 0.575 µM) | 0.25 µg/mL (≈ 0.575 µM) | 0.03 µg/mL (≈ 0.069 µM) | 79%
